Measured values taken from patent US20250041429A1, “COMPOUND HAVING BTK PROTEIN DEGRADATION ACTIVITY, AND MEDICAL USES THEREOF” (UBIX THERAPEUTICS, INC., priority 2021, published 2025).

Target: T1, BTK protein (Homo sapiens, UniProt Q06187)
T1 construct: endogenous in cells; host or cells: TMD-8 cells
Assay: Measurement of BTK protein degradation ability in TMD-8 cells (Western blotting)
Assay type: cell-based
Conditions: harvested after 24 hours; for BTK degradation (%) 1 nM: compound 1 nM; for BTK degradation (%) 10 nM: compound 10 nM; for BTK degradation (%) 100 nM: compound 100 nM
Method in brief: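 BTK levels were measured by immunoblotting of equal-protein RIPA lysates, normalized to GAPDH or β-actin, with chemiluminescent or infrared detection. Lysates came from TMD-8 cells exposed to compound for 24 h at final concentrations of 0.1, 1, 10 μM or 0.0001–0.1 μM, against a DMSO control.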

T1 sequence (Q06187 whole entry): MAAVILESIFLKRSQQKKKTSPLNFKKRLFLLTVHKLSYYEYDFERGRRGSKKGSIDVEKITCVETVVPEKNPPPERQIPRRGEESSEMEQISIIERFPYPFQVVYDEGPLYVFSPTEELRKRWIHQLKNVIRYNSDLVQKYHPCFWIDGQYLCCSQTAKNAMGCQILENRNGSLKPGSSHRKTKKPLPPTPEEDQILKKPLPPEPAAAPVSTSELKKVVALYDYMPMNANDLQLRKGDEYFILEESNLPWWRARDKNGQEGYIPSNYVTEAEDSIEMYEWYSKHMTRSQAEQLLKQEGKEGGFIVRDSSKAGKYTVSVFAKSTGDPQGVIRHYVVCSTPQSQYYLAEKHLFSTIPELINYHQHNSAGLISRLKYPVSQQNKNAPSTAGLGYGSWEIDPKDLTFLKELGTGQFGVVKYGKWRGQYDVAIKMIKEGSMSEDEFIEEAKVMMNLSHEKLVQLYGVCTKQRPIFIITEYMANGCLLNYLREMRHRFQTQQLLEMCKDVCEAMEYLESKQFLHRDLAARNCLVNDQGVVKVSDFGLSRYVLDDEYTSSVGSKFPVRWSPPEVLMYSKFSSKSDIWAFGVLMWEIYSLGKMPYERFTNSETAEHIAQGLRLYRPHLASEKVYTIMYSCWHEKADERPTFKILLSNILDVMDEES

Row | Structure (SMILES) | BTK degradation (%) 1 nM | BTK degradation (%) 10 nM | BTK degradation (%) 100 nM
1 | Cc1cc(-c2ccnc(Nc3cnn(C4CCN(CC5CCN(C(=O)c6cccc(NC7CCC(=O)NC7=O)c6)CC5)CC4)c3)n2)ccc1CNC(=O)N1CC(OC(C)C)C1 (stereo not drawn) [Example 91, N-(4-(2-((1-(1-((1-(3-((2,6-dioxopiperidin-3-yl)amino)benzoyl)piperidin-4-yl)methyl)piperidin-4-yl)-1H-pyrazol-4-yl)amino)pyrimidin-4-yl)-2-methylbenzyl)-3-isopropoxyazetidine-1-carboxamide] | 4.5% | 68.5% | 95.0%
2 | Cc1cc(-c2ccnc(Nc3ccc(N4CCC(CN5CCC(c6ccc(NC7CCC(=O)NC7=O)cc6)CC5)CC4)nc3)n2)ccc1CNC(=O)N1CC(OC(C)C)C1 (stereo not drawn) [Example 145, N-(4-(2-((6-(4-((4-(4-((2,6-dioxopiperidin-3-yl)amino)phenyl)piperidin-1-yl)methyl)piperidin-1-yl)pyridin-3-yl)amino)pyrimidin-4-yl)-2-methylbenzyl)-3-isopropoxyazetidine-1-carboxamide] | 27.5% | 85.0% | 99.0%
3 | Cc1cc(-c2ccnc(Nc3ccc(C4CCN(CC5CCN(c6ccc(NC7CCC(=O)NC7=O)cn6)CC5)CC4)cc3)n2)ccc1CNC(=O)N1CC(OC(C)C)C1 (stereo not drawn) [Example 53, N-(4-(2-((4-(1-((1-(5-((2,6-dioxopiperidin-3-yl)amino)pyridin-2-yl)piperidin-4-yl)methyl)piperidin-4-yl)phenyl)amino)pyrimidin-4-yl)-2-methylbenzyl)-3-isopropoxyazetidine-1-carboxamide] | 13.3% | 86.7% | 99.3%
4 | Cc1cc(-c2ccnc(Nc3ccc(N4CCN(CC5CCN(Cc6cccc(NC7CCC(=O)NC7=O)c6)CC5)CC4)cc3)n2)ccc1CNC(=O)N1CC(OC(C)C)C1 (stereo not drawn) [Example 115, N-(4-(2-((4-(4-((1-(3-((2,6-dioxopiperidin-3-yl)amino)benzyl)piperidin-4-yl)methyl)piperazin-1-yl)phenyl)amino)pyrimidin-4-yl)-2-methylbenzyl)-3-isopropoxyazetidine-1-carboxamide] | 48.0% | 97.0% | 100.0%
5 | Cc1cc(CNC(=O)N2CC(OC(C)C)C2)cc(-c2ccnc(Nc3ccc(N4CCN(CC5CCN(c6ccc7c(c6)C(=O)N(C6CCC(=O)NC6=O)C7=O)CC5)CC4)cc3)n2)c1 (stereo not drawn) [Example 28, N-(3-(2-((4-(4-((1-(2-(2,6-dioxopiperidin-3-yl)-1,3-dioxoisoindolin-5-yl)piperidin-4-yl)methyl)piperazin-1-yl)phenyl)amino)pyrimidin-4-yl)-5-methylbenzyl)-3-isopropoxyazetidine-1-carboxamide] | 18% | 12% | 4.5%
6 | Cc1cc(-c2ccnc(Nc3ccc(CN4CCC(CN5CCC(c6ccc(NC7CCC(=O)NC7=O)cc6)CC5)CC4)cc3)n2)ccc1CNC(=O)c1cn(C(C)(C)C)nn1 (stereo not drawn) [Example 142, 1-(tert-butyl)-N-(4-(2-((4-((4-((4-(4-((2,6-dioxopiperidin-3-yl)amino)phenyl)piperidin-1-yl)methyl)piperidin-1-yl)methyl)phenyl)amino)pyrimidin-4-yl)-2-methylbenzyl)-1H-1,2,3-triazole-4-carboxamide] | 44.5% | 88.5% | 99.0%
7 | Cc1cc(-c2ccnc(Nc3cnn(C4CCN(CC5CN(c6ccc7c(c6)C(=O)N(C6CCC(=O)NC6=O)C7=O)C5)CC4)c3)n2)ccc1CNC(=O)c1cnn(C(C)(C)C)c1 (stereo not drawn) [Example 38, 1-(tert-butyl)-N-(4-(2-((1-(1-((1-(2-(2,6-dioxopiperidin-3-yl)-1,3-dioxoisoindolin-5-yl)azetidin-3-yl)methyl)piperidin-4-yl)-1H-pyrazol-4-yl)amino)pyrimidin-4-yl)-2-methylbenzyl)-1H-pyrazole-4-carboxamide] | 72.5% | 96% | 98.5%
8 | Cc1cc(NC(=O)N2CC(OC(C)C)C2)cc(-c2ccnc(Nc3ccc(N4CCN(CC5CCN(c6ccc7c(c6)C(=O)N(C6CCC(=O)NC6=O)C7=O)CC5)CC4)cc3)n2)c1 (stereo not drawn) [Example 29, N-(3-(2-((4-(4-((1-(2-(2,6-dioxopiperidin-3-yl)-1,3-dioxoisoindolin-5-yl)piperidin-4-yl)methyl)piperazin-1-yl)phenyl)amino)pyrimidin-4-yl)-5-methylphenyl)-3-isopropoxyazetidine-1-carboxamide] | 7% | 40.5% | 81.5%
9 | Cc1cc(-c2ccnc(Nc3ccc(C4CCN(CC5CN(c6ccc7c(c6)C(=O)N(C6CCC(=O)NC6=O)C7=O)C5)CC4)nc3)n2)ccc1CNC(=O)N1CC(OC(C)C)C1 (stereo not drawn) [Example 20, N-(4-(2-((6-(1-((1-(2-(2,6-dioxopiperidin-3-yl)-1,3-dioxoisoindolin-5-yl)azetidin-3-yl)methyl)piperidin-4-yl)pyridin-3-yl)amino)pyrimidin-4-yl)-2-methylbenzyl)-3-isopropoxyazetidine-1-carboxamide] | 49% | 92% | 98.5%

The next lines start with the values.

Row | BTK degradation (%) 1 nM | BTK degradation (%) 10 nM | BTK degradation (%) 100 nM | Structure (SMILES)
10 | 59.5% | 96.0% | 100.0% | Cc1cc(-c2ccnc(Nc3ccc(N4CCC(CN5CCN(c6ccc(NC7CCC(=O)NC7=O)cn6)CC5)CC4)cc3)n2)ccc1CNC(=O)c1cnn(C(C)(C)C)c1 (stereo not drawn) [Example 131, 1-(tert-butyl)-N-(4-(2-((4-(4-((4-(5-((2,6-dioxopiperidin-3-yl)amino)pyridin-2-yl)piperazin-1-yl)methyl)piperidin-1-yl)phenyl)amino)pyrimidin-4-yl)-2-methylbenzyl)-1H-pyrazole-4-carboxamide]
11 | 54.0% | 95.0% | 99.5% | Cc1cc(-c2ccnc(Nc3ccc(N4CCN(CC5CCN(c6cccc(NC7CCC(=O)NC7=O)c6)CC5)CC4)cc3)n2)ccc1CNC(=O)c1cnn(C(C)C)c1 (stereo not drawn) [Example 57, N-(4-(2-((4-(4-((1-(3-((2,6-dioxopiperidin-3-yl)amino)phenyl)piperidin-4-yl)methyl)piperazin-1-yl)phenyl)amino)pyrimidin-4-yl)-2-methylbenzyl)-1-isopropyl-1H-pyrazole-4-carboxamide]
12 | 32.5% | 92.0% | 99.0% | Cc1cc(-c2ccnc(Nc3ccc(N4CCN(CC5CCN(c6cccc(N7CCC(=O)NC7=O)c6)CC5)CC4)cc3)n2)ccc1CNC(=O)N1CC(OC(C)C)C1 [Example 65, N-(4-(2-((4-(4-((1-(3-(2,4-dioxotetrahydropyrimidin-1 (2H)-yl)phenyl)piperidin-4-yl)methyl)piperazin-1-yl)phenyl)amino)pyrimidin-4-yl)-2-methylbenzyl)-3-isopropoxyazetidine-1-carboxamide]
13 | 43.3% | 94.0% | 99.3% | Cc1cc(-c2ccnc(Nc3ccc(N4CCC(CN5CCN(c6ccc(NC7CCC(=O)NC7=O)cn6)CC5)CC4)cc3)n2)ccc1CNC(=O)N1CC(OC(C)C)C1 (stereo not drawn) [Example 127, N-(4-(2-((4-(4-((4-(5-((2,6-dioxopiperidin-3-yl)amino)pyridin-2-yl)piperazin-1-yl)methyl)piperidin-1-yl)phenyl)amino)pyrimidin-4-yl)-2-methylbenzyl)-3-isopropoxyazetidine-1-carboxamide]
14 | 45.5% | 89.5% | 98.0% | Cc1cc(-c2ccnc(Nc3ccc(C4CCN(CC5CN(c6ccc7c(c6)C(=O)N(C6CCC(=O)NC6=O)C7=O)C5)CC4)cc3)n2)ccc1CNC(=O)c1cnn(C(C)(C)C)c1 (stereo not drawn) [Example 45, 1-(tert-butyl)-N-(4-(2-((4-(1-((1-(2-(2,6-dioxopiperidin-3-yl)-1,3-dioxoisoindolin-5-yl)azetidin-3-yl)methyl)piperidin-4-yl)phenyl)amino)pyrimidin-4-yl)-2-methylbenzyl)-1H-pyrazole-4-carboxamide]
15 | 51.0% | 96.5% | 99.5% | Cc1cc(-c2ccnc(Nc3ccc(N4CCN(CC5CCN(c6cccc(N7CCC(=O)NC7=O)c6)CC5)CC4)nc3)n2)ccc1CNC(=O)c1cnn(C(C)(C)C)c1 [Example 83, 1-(tert-butyl)-N-(4-(2-((6-(4-((1-(3-(2,4-dioxotetrahydropyrimidin-1 (2H)-yl)phenyl)piperidin-4-yl)methyl)piperazin-1-yl)pyridin-3-yl)amino)pyrimidin-4-yl)-2-methylbenzyl)-1H-pyrazole-4-carboxamide]
16 | 60.5% | 96.5% | 100.0% | Cc1cc(-c2ccnc(Nc3ccc(N4CCC(CN5CCN(c6ccc(NC7CCC(=O)NC7=O)cn6)CC5)CC4)cc3)n2)ccc1CNC(=O)c1cn(C(C)(C)C)nn1 (stereo not drawn) [Example 133, 1-(tert-butyl)-N-(4-(2-((4-(4-((4-(5-((2,6-dioxopiperidin-3-yl)amino)pyridin-2-yl)piperazin-1-yl)methyl)piperidin-1-yl)phenyl)amino)pyrimidin-4-yl)-2-methylbenzyl)-1H-1,2,3-triazole-4-carboxamide]
17 | 49.0% | 95.5% | 100.0% | Cc1cc(-c2ccnc(Nc3ccc(N4CCC(CN5CCN(c6ccc(NC7CCC(=O)NC7=O)cn6)CC5)CC4)cc3)n2)ccc1CNC(=O)c1cnn(C(C)C)c1 (stereo not drawn) [Example 129, N-(4-(2-((4-(4-((4-(5-((2,6-dioxopiperidin-3-yl)amino)pyridin-2-yl)piperazin-1-yl)methyl)piperidin-1-yl)phenyl)amino)pyrimidin-4-yl)-2-methylbenzyl)-1-isopropyl-1H-pyrazole-4-carboxamide]
